{"source": "patent US20240373851A1", "about": "“PEST CONTROL COMPOSITION AND PEST CONTROL METHOD” (SUMITOMO CHEMICAL COMPANY, LIMITED, priority 2021, published 2024)", "format_in_all_cases": "in vivo", "key": {"[1]": {"system": "German cockroaches (Blattella germanica)", "experiment": "Test Example 11: control test against German cockroaches, spray in chamber", "details": "adult German cockroaches; 1.5 mL sprayed; concentration [%]: isocycloseram 0.01, imiprothrin 0.01, permethrin 0.05, alone or mixed; 120 minutes after spraying", "procedure": "(§1) Next, the usefulness of the inventive composition for controlling pests will be indicated by Test Examples. In general, the control effect to be expected when treated with a mixture obtained by mixing given two or three types of active ingredient compounds is determined by the Colby's calculation equation represented by the following [Equation 1] and [Equation 2].\n(§2) [formula] • P: moribund and mortal rates (%) when treated with an active ingredient compound X in the concentration of m [ppm] • Q: moribund and mortal rates (%) when treated with an active ingredient compound Y in the concentration of n [ppm] • EA: moribund and mortal rates (%) when treated with an active ingredient compound X in the concentration of m [ppm] and an active ingredient compound Y in the concentration of n [ppm] (hereinafter referred to as expected value A) […]\n(§3) Regarding the synergistic effect of three types of the active ingredient compounds, in case where the moribund and mortal rates (%) when actually treated with a mixture obtained by mixing three types of the active ingredient compounds exceed the expected value A calculated by using the moribund and mortal rates (%) when actually treated with a mixture obtained by mixing two types of the active ingredient compounds among three types thereof, and the moribund and mortal rates (%) calculated when actually treated the remaining one type of the active ingredient compound, or the expected value B (%) calculated from the moribund and mortal rates (%) when actually treated with each of three types of the active ingredient compounds alone, it was determined that the synergistic effect exists. […]"}, "[2]": {"system": "German cockroaches (Blattella germanica)", "experiment": "Test Example 10: control test against German cockroaches, spray in chamber", "details": "adult German cockroaches; 1.5 mL sprayed; concentration [%]: nicofluprole 0.01, imiprothrin 0.01, permethrin 0.05, alone or mixed; 60 minutes after spraying", "procedure": "as §1, §2, §3"}, "[3]": {"system": "German cockroaches (Blattella germanica)", "experiment": "Test Example 1: control test against German cockroaches, spray in chamber (cup without filter paper)", "details": "adult German cockroaches; 1.5 mL sprayed; concentration [%]: broflanilide 0.01, imiprothrin 0.01, cypermethrin 0.01, alone or mixed; 120 minutes after spraying", "procedure": "as §1, §2\nRegarding the synergistic effect of three types of the active ingredient compounds, in case where the moribund and mortal rates (%) when actually treated with a mixture obtained by mixing three types of the active ingredient compounds exceed the expected value A calculated by using the moribund and mortal rates (%) when actually treated with a mixture obtained by mixing two types of the active ingredient compounds among three types thereof, and the moribund and mortal rates (%) calculated when actually treated the remaining one type of the active ingredient compound, or the expected value B (%) calculated from the moribund and mortal rates (%) when actually treated with each of three types of the active ingredient compounds alone, it was determined that the synergistic effect exists.\nIn a plastic cup (diameter: 12.4 cm, height: 10.2 cm), ten adult German cockroaches (Blattella germanica) (five males and five females each) were released, and the plastic cup was placed in the center of the bottom of a box-shaped chamber (46 cm×46 cm×70 cm in height). […] After a lapse of 120 minutes from spraying, the number of dead and moribund individuals was examined, and moribund and mortal rates (%) were determined by the equation 3 below. […]"}}}
{"compound": "C#CCN1CC(=O)N(COC(=O)[C@@H]2C(C=C(C)C)C2(C)C)C1=O", "note": "(mixture of isomers) [Imiprothrin, imiprothrin]", "values": [{"measurement": "Moribund and mortal rates [%] after 120 minutes", "setting": "[1]", "result": 15, "unit": "%"}, {"measurement": "Moribund and mortal rates [%] after 60 minutes", "setting": "[2]", "result": 40, "unit": "%"}, {"measurement": "Moribund and mortal rates [%] after 120 minutes", "setting": "[3]", "result": 15, "unit": "%"}]}
